The source of these data is patent publication US11059784B2, “Oxime ether compounds” (BRISTOL-MYERS SQUIBB COMPANY, priority 2017, dated 2021).

Each structure is given as a SMILES string.

The nature of data set [1]: Pulmonary Toxicity Assay (bronchoalveolar lavage protein). The format is in vivo, rats. To be noted: 3 mg/kg oral, 24 hr post-dose. Here is the method: The analysis of protein levels in bronchoalveolar lavage (BAL) fluid obtained from an animal were used to gauge pulmonary side effects. Increased levels of protein in BAL fluid were indicative of undesired edematous pulmonary effects, such as pulmonary edema.
Example 3 was administered orally to rats at doses of 0.3, 1.0, 10, 30 mg/kg and 2-amino-2-[2-(4-octylphenyl)ethyl]-1,3-propanediol, hydrochloride (CAS: 162359-56-0) was administered at 3.0 mg/kg as a solution in the vehicle. At 24 hours post dose, the rats were then euthanized by barbiturate overdose. The trachea was exposed by incision of the overlying skin and then cannulated. The lungs were lavaged with 4 mL of saline. The recovered lavage fluid was assayed for total protein content. The concentration of the BAL protein in the recovered BAL fluid was determined on an Advia 1800 Chemistry Analyzer (Siemens Healthcare Diagnostics). The results represent the average results of all animals within each treatment group (n=2-4).

Data set [2] relates to blood lymphocytes. Kind of data set: Blood Lymphocyte Reduction (BLR) assay in rodent. Conditions: 3 mg/kg, 24 hr post-dose, Table C study. The format is in vivo, Lewis rats.
For data set [3], the system named is blood lymphocytes. Kind of data set: Blood Lymphocyte Reduction (BLR) assay in rodent. The format is in vivo, Lewis rats. To be noted: 24 hr post-dose, Table B study; for Percent reduction vs. control: hydrochloride. As to the method:
Blood Lymphocyte Reduction (BLR) assay in rodent:
Lewis rats were dosed orally with vehicle alone (polyethylene glycol 300, “PEG300”) or with the comparative compound 2-amino-2-[2-(4-octylphenyl)ethyl]-1,3-propanediol, hydrochloride (“FTY” CAS: […]) as a solution in the vehicle at doses of 0.1 mg/kg, 0.5 mg/kg and 3.0 mg/kg. The results are provided in Table Band the level of lymphocyte reduction at 24 hours post-dose was maximal at 3.0 mg/kg. The percent reduction in lymphocytes is dose-related but the relationship is not linear, with non-proportional increases in dose being required to elicit sequentially greater reductions in lymphocyte counts.

Regarding `CCCCCCCCc1ccc(CCC(N)(CO)CO)cc1.Cl` [FTY, 2-amino-2-[2-(4-octylphenyl)ethyl]-1,3-propanediol, hydrochloride], in data set [1], the “Relative BAL protein vs. control” value is on record as 1.8. Also, the “Percent reduction vs. vehicle control” value in data set [2] worked out at 87%. For the same compound, the figures for the “Rat Blood Lymphocyte Reduction Assay, Compound Mean” value in data set [3] (0.1 mg/kg oral), in data set [3] (0.5 mg/kg oral) and in data set [3] (3.0 mg/kg oral) were 2.78, 1.64 and 1.02, respectively. Moreover, the “Percent reduction vs. control” value is given as 69% in data set [3] (0.1 mg/kg oral); 69% in data set [3] (0.1 mg/kg oral, listed as 2-amino-2-[2-(4-octylphenl)pethyl]-1,3-propanediol); 82% in data set [3] (0.5 mg/kg oral); 82% in data set [3] (0.5 mg/kg oral, listed as 2-amino-2-[2-(4-octylphenl)pethyl]-1,3-propanediol); 89% in data set [3] (3.0 mg/kg oral); 89% in data set [3] (3.0 mg/kg oral, listed as 2-amino-2-[2-(4-octylphenl)pethyl]-1,3-propanediol).
